Read-outs that look alike come from different tables or passages of the source. Where only a bound is given, the exact number is not on record here.

The conditions of data set [1]: incubation at 2 mM in freshly collected mouse blood at 37 °C; LC-MS/MS on plasma fractions; peptide described elsewhere; cited from earlier work. An excerpt:
Among the family of peptide-based vectors we identified, the VH4127 (cyclo[(D)-Cys-Met-Thz-Arg-Leu-Arg-Gly-Pen]) peptide ligand used in this study was described elsewhere. Briefly, it was obtained by high-throughput screening of phage display peptide libraries on engineered cell lines expressing the mouse and human LDLR, and was further chemically optimized for optimal LDLR-binding affinity and plasma stability. The VH4127 peptide contains three non-natural amino-acids D-Cys, Thz, and Pen (at positions 1, 3, and 8, respectively), and a disulfide bridge between D-Cys and Pen side ...

Another data set deals with SOD1 mRNA in liver. Kind of data set: In vivo gene silencing in mouse liver after i.v. administration, RT-qPCR. As to conditions: C57Bl/6JRj mice, single i.v. bolus 1 µmole/kg (15 mg/kg siRNA) in PBS, liver 7 days post-administration. The protocol:
Wild-type male C57Bl/6JRj mice (Janvier Labs, Le Genest-Saint-Isle, France) aged 10–12 weeks old were used. All animal studies were approved by the ethics committee for animal experimentation (CEEA-N°14) and approved by French ministry of agriculture (MRC). […] Intravenous (i.v., lateral tail vein) administrations (15 mg/kg) were performed on conscious restrained mice. Following a 7-day observational period, animals were euthanized by an intraperitoneal overdose of Ketamin-Xylasine mixture (Sigma Aldrich, Saint-Quentin-Fallavier, France), and tissue samples were collected after extensive blood wash-out by intracardiac perfusion (Left ventricle, Flow rate 8 mL/min) of a saline solution (0.9%) and immediately stored at −20 °C in 10 vol NucleoProtect RNA stabilization reagent (Macherey-Nagel, Düren, Germany) before further RNA extraction and target mRNA quantification.
(§1) For in vitro free uptake experiments, the total RNA was extracted using the NucleoSpin RNA XS (Macherey Nagel, Hoerdt, France) according to the manufacturer’s recommendations. For transfection experiments the SuperScript™ IV CellsDirect™ cDNA Synthesis kit (Thermo Fisher Scientific) was used according to manufacturer’s recommendations. For in vivo experiments, mouse organs were crushed in 2 mL tubes pre-filled with ceramic mixture in Precellys®Cryolys® Evolution (Bertin, Montigny le Bretonneux, France) with a QIAZOL lysis buffer (Qiagen, Venlo, The Netherlands). A volume of 150 µL of chloroform (Sigma Aldrich) was added to 750 µL of tissue homogenate and a phenol/chloroform separation was performed using centrifugation for 15 min at 6000× g at 4 °C. Aqueous phases were recovered and RNA extraction was performed with the RNeasy 96 QIAcube HT Kit (Qiagen) according to the manufacturer’s recommendations, in a QIACUBE HT instrument (Qiagen). […] For reverse transcription (RT), 500 ng of total RNA were used (except for cells treated with SuperScript™ IV CellsDirect™ cDNA Synthesis), and cDNA synthesis was performed using the High-Capacity RNA-to-cDNA™ kit (Thermo Fisher Scientific) according to the manufacturer’s recommendations.
(§2) Real-time quantitative PCR (RT-qPCR) assays were performed using the CFX96 Touch Real-Time PCR Detection System (Bio-Rad, Hercules, CA, USA). […] The following primers were used: Mm01344233_g1 SOD1 (mouse), Mm02526700_g1 RpL13 (mouse), Mm01352366_m1 SDHA (mouse), Mm00457191_m1 PSMC4 (mouse). RpL13, SDHA, or PSMC4 served as internal controls for sample normalization, and the comparative cycle threshold method (2−ΔΔCt) was used for data quantification. Finally, gene expression ratios (compared to control samples) were determined.
The in vivo targeting and functional uptake potential of LDLR-binding siSOD1-peptide conjugates was evaluated as follows.
Mice were injected (i.v. lateral tail vein) with unconjugated siRNAs and siSOD1-peptide conjugates in PBS (15 mg/kg). Seven days post-administration mice were euthanized and perfused with saline solution (0.9% NaCl). Organs were collected to assess the SOD1 mRNA levels using RT-qPCR.
(Real-time PCR tracks product formation cycle by cycle.)

For data set [2], the target named is T1, His-tagged recombinant mouse LDLR (extracellular domain, mLDLR-ECD) (Mus musculus, UniProt P35951).
T1 construct: recombinant mouse LDLR (extracellular domain, mLDLR-ECD); purchased SinoBiological (Beijing, China)
Description: SPR LDLR-binding affinity (multiple-cycle kinetics, equilibrium KD). Particulars: SPR Biacore T200, 25 °C, mLDLR on NiHC1000m chip (700–2000 RU), MCK mode, 50 mM HEPES-NaOH pH 7.4 running buffer, analyte 0.6–640 nM or 0.6–40 nM, equilibrium response fit, means ± SD of n = 6 (triplicate analysis of 2 independent experiments), read-out: Affinities SPR (equilibrium dissociation constant, KD). The procedure: His-tagged recombinant mouse LDLR (extracellular domain, mLDLR-ECD) was purchased from SinoBiological (Beijing, China). SPR measurements were performed at 25 °C using a Biacore T200 apparatus (Cytiva) and 50 mM HEPES-NaOH pH 7.4, 150 mM NaCl, 50 μM EDTA, 0.005% Tween-20 (v/v), 10 mM Imidazole as running buffer. mLDLR was immobilized on a NiHC1000 m sensor chip (Xantec, Dusseldorf, Germany) at a density of around 10–30 fmol/mm^2. A control flowcell without mLDLR was used as reference. The multiple-cycle kinetic (MCK) method was applied to study molecular interactions of peptides and conjugates. Seven to 11 different concentrations of the analyte were prepared by two-fold dilutions in running buffer (0.6–640 nM or 0.6–40 nM) and successively injected over the flowcells during 120 s at 30 μL/min with a dissociation time of 300 s. Blank runs of running buffer were performed in the same conditions and subtracted from sample runs before evaluation. Equilibrium dissociation constants (KD) were calculated by plotting saturation binding curves using the equilibrium response at the plateau of all curves with BiaEvaluation version 2.0 software. All data are the means of six determinations (triplicate analysis of 2 independent experiments).
For orientation: In SPR one partner is held on a chip, and binding of the other changes the refractive index at the surface.

The test system of data set [3] is mSOD1 mRNA in Neuro-2a cells. Description: Gene silencing after transfection (DharmaFECT 2) in Neuro-2a cells, RT-qPCR. Format: cell-based, mouse. Particulars: DharmaFECT 2, 30 nM, 24 h at 37 °C. The protocol:
Neuro-2a cells were plated in a 96-well plate at 4000 cells/well one day before experiments. According to DharmaFECT general manufacturer’s protocol (Horizon Discovery), cells were transfected with a mix containing the DharmaFECT 2 and 30 nM of tested compound. […] At the end of the incubation period, Neuro-2a cells were washed once with D-PBS before RNA extraction.
as §1, §2
(A) Transfection of unconjugated siSOD1 and siSOD1-peptide conjugates on Neuro-2a cells at 30 nM. […] (B) Free uptake experiments of unconjugated siSOD1 and siSOD1-peptide conjugates on Neuro-2a cells at 1 µM. After 3 days at 37 °C, mSOD1 mRNA levels were quantified using RT-qPCR. Each dot corresponds to the mean value obtained in independent experiments. (C) Free uptake experiments of siSOD1-31, -35, -36, -37 conjugates with their respective negative controls siSOD1-31Sc, -35Sc, -36Sc, -37Sc on Neuro-2a cells at 1 µM.

In data set [4] the test system is mSOD1 mRNA in Neuro-2a cells. Description: Gene silencing by free uptake in Neuro-2a cells, RT-qPCR. As to conditions: 1 µM, 3 days at 37 °C, DMEM with 1% fetal calf serum. In kind it is cell-based, mouse. The procedure: Neuro-2a cells were plated in a 48-well plate at 13,000 cells/well the day before the test. All siRNA and conjugates were incubated during 3 days at 37 °C with 1 µM of conjugate prepared in DMEM supplemented with 1% fetal calf serum. At the end of the incubation period, cells were washed once with D-PBS before RNA extraction. For in vitro free uptake experiments, the total RNA was extracted using the NucleoSpin RNA XS (Macherey Nagel, Hoerdt, France) according to the manufacturer’s recommendations. For transfection experiments the SuperScript™ IV CellsDirect™ cDNA Synthesis kit (Thermo Fisher Scientific) was used according to manufacturer’s recommendations. […] Aqueous phases were recovered and RNA extraction was performed with the RNeasy 96 QIAcube HT Kit (Qiagen) according to the manufacturer’s recommendations, in a QIACUBE HT instrument (Qiagen). […] For reverse transcription (RT), 500 ng of total RNA were used (except for cells treated with SuperScript™ IV CellsDirect™ cDNA Synthesis), and cDNA synthesis was performed using the High-Capacity RNA-to-cDNA™ kit (Thermo Fisher Scientific) according to the manufacturer’s recommendations. Real-time quantitative PCR (RT-qPCR) assays were performed using the CFX96 Touch Real-Time PCR Detection System (Bio-Rad, Hercules, CA, USA). […] Finally, gene expression ratios (compared to control samples) were determined. […] (A) Transfection of unconjugated siSOD1 and siSOD1-peptide conjugates on Neuro-2a cells at 30 nM. […] (B) Free uptake experiments of unconjugated siSOD1 and siSOD1-peptide conjugates on Neuro-2a cells at 1 µM. […] Each dot corresponds to the mean value obtained in independent experiments.

T1 sequence (P35951 22-790 limits assumed): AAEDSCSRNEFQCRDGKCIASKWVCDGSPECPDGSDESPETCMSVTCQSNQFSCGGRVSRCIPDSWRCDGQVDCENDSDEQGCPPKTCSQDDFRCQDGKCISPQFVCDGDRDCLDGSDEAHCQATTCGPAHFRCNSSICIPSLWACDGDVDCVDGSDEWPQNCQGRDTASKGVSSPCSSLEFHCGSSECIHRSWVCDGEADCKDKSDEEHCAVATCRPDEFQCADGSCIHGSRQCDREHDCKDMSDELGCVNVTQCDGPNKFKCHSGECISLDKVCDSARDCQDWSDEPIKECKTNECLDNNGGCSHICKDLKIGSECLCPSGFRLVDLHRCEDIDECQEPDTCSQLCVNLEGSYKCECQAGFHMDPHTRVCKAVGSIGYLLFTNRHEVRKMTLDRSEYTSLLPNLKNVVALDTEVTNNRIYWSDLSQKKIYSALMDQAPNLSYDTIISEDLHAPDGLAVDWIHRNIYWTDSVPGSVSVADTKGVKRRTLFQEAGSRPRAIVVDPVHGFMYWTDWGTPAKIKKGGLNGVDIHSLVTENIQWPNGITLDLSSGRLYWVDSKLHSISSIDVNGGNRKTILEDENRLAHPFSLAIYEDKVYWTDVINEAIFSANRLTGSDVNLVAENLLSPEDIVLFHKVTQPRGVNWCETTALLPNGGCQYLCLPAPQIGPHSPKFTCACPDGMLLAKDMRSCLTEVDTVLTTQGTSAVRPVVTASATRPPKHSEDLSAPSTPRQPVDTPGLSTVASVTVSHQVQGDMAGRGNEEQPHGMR

On to `CCC(=O)N[C@@H]1CSSC(C)(C)[C@@H](C(N)=O)NC(=O)CNC(=O)[C@H](CCCNC(=N)N)NC(=O)[C@H](CC(C)C)NC(=O)[C@H](CCCNC(=N)N)NC(=O)[C@@H]2CSCN2C(=O)[C@H](CCSC)NC1=O` [VH4127, cyclo[(D)-Cys-Met-Thz-Arg-Leu-Arg-Gly-Pen]], for which the “In vitro plasma stability, estimated half-life” value in data set [1] was 4.27 h.
One may read the Kd as the equilibrium constant for the complex coming apart. For “Pr-K(N3)-PEG2-[cMThzRLRGPen]c-NH2 (disulfide) [siSOD1-33]”, the “In Vivo KD, Liver (SOD1 mRNA knock-down)” value in the data set with SOD1 mRNA in liver is given as roughly 50%. Further, in data set [2] (SD), the equilibrium dissociation constant (Kd) came to 12.8 ± 1.9 nM. Moreover, the “In Vitro KD on N2A, Transfection (mSOD1 mRNA knock-down)” value (“In Vitro KD on N2A, Transfection” for short) in data set [3] is listed as greater than 90%.
With “Pr-K(N3)-PEG2-[cMThzRLRGPen]c-NH2 (disulfide) [siSOD1-37]”, in the data set with SOD1 mRNA in liver, the “In Vivo KD, Liver (SOD1 mRNA knock-down)” value is 35%. For the same compound, the “In Vitro KD on N2A, Free Uptake (mSOD1 mRNA knock-down)” value (“In Vitro KD on N2A, Free Uptake” below) in data set [4] came out at 60%. In addition, in data set [2] (SD), the Kd came to 31.9 ± 1.6 nM. Besides, the “In Vitro KD on N2A, Transfection” value in data set [3] is greater than 90%.
In the same order, the values of “Pr-K(N3)-PEG2-[cMThzRLRGPen]c-NH2 (disulfide) [siSOD1-36]” are 30%, 60%, 25 ± 1.2 nM and greater than 90%.
For the compound “Pr-[cMThzRLRGPen]c-PEG2-K(N3)-NH2 (disulfide) [siSOD1-32]”, the “In Vivo KD, Liver (SOD1 mRNA knock-down)” value in the data set with SOD1 mRNA in liver is ~ 20%. In addition, the “In Vitro KD on N2A, Free Uptake” value in data set [4] is “did not show improvement compared to the unconjugated 5′P-siSOD1”. Moreover, the Kd in data set [2] (SD) was 86.8 ± 17.1 nM; in data set [2], 87 to 104 nM. Further, the “In Vitro KD on N2A, Transfection” value in data set [3] was 40%.
The like results for “Pr-K(N3)-PEG2-[cMThzRLRGPen]c-NH2 (disulfide) [siSOD1-31]” were, in that order, 40%, 55%, 104 ± 11.7 nM, 87 to 104 nM and greater than 90%.
In the case of “Pr-[cMThzRLRGPenG]c-OH (disulfide) [siSOD1-35]”, the “In Vivo KD, Liver (SOD1 mRNA knock-down)” value with SOD1 mRNA in liver is 50%. For the same compound, in data set [4], the “In Vitro KD on N2A, Free Uptake” value is given as “improved KD effect compared to its non-binding control siSOD1-35sc”. For the same compound, in data set [2] (SD), the Kd worked out at 11.3 ± 2.9 nM. Besides, in data set [3], the “In Vitro KD on N2A, Transfection” value is on record as greater than 90%.

Values taken from paper PMC11054735, “LDLR-Mediated Targeting and Productive Uptake of siRNA-Peptide Ligand Conjugates In Vitro and In Vivo” (Pharmaceutics, 2024).
